From ChEMBL document CHEMBL1667810, “New positive allosteric modulators of the metabotropic glutamate receptor 2 (mGluR2): identification and synthesis of N-propyl-8-chloro-6-substituted isoquinolones” (Bioorg Med Chem Lett, 2011)

Legend:
Assay type in all cases: functional, cell-based
[1] = target: T1, Metabotropic glutamate receptor 2 (Homo sapiens, UniProt Q14416); assay: Agonist activity at human mGluR2 expressed in CHO cells at by [S35]GTPgammaS binding assay relative to glutamate
Target sequence in this assay (Q14416 19-872 limits assumed): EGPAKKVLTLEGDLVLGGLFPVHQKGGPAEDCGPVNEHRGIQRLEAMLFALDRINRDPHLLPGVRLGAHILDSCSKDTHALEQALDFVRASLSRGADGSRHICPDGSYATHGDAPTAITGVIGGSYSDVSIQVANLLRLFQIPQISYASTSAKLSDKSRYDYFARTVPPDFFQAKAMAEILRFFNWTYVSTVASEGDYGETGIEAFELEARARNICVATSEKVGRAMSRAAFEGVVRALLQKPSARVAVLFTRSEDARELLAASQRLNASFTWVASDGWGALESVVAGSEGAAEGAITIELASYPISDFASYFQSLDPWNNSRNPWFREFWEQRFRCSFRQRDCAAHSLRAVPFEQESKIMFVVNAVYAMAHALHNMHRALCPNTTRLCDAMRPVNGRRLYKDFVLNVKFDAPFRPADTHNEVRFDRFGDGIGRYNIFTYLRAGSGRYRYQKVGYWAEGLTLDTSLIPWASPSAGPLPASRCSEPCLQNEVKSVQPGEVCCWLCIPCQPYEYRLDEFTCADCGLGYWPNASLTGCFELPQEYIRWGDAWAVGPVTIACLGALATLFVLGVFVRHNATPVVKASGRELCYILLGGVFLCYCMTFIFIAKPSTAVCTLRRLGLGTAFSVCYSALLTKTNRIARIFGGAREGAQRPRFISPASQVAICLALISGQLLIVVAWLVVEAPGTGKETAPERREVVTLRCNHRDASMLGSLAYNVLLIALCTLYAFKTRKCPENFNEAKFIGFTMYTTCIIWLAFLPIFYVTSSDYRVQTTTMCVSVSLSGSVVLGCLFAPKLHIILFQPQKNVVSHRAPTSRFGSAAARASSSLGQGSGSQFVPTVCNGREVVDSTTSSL

[2] = target: T1, Metabotropic glutamate receptor 2; assay: Agonist activity at human mGluR2 expressed in CHO cells at by [S35]GTPgammaS binding assay
Target sequence in this assay (Q14416 whole entry): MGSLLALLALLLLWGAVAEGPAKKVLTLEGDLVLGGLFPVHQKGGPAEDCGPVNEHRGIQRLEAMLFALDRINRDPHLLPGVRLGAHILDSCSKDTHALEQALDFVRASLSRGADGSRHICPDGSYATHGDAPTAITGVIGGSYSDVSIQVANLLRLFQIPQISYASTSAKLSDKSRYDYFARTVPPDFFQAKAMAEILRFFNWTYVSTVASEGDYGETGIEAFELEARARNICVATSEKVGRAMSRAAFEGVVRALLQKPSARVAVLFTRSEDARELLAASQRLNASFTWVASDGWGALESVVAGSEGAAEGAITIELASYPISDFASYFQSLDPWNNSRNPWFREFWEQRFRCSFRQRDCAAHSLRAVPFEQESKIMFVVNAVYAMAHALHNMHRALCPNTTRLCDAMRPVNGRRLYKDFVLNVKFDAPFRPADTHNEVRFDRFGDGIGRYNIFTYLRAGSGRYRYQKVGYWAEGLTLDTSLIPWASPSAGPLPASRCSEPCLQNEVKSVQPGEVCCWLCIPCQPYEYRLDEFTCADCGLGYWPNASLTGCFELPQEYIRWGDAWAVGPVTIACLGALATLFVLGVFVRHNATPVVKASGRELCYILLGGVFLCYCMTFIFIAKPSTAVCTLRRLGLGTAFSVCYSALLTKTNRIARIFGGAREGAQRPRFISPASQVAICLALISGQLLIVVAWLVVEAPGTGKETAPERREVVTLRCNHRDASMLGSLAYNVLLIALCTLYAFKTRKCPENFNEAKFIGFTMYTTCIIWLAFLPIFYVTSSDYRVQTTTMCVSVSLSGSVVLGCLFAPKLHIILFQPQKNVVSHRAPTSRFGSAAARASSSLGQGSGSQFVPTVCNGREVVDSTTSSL

[3] = target: T1, Metabotropic glutamate receptor 2; assay: Agonist activity at human mGluR2 expressed in HEK293 cells assessed as induction of calcium release by FLIPR assay
Target sequence in this assay (Q14416 whole entry): as above

Structure (SMILES) | Emax [1] [%] | EC50 [2] [µM] | EC50 [3] [µM]
CCCn1ccc2cc(OCCCc3cccnc3)cc(Cl)c2c1=O | 75 | 0.631 | –
CCCn1ccc2cc(-c3ccc(OCc4ccc(C(F)(F)F)nc4)cc3)cc(Cl)c2c1=O | 170 | 0.251 | –
CCCn1ccc2cc(-c3cnc(OC)c(F)c3)cc(Cl)c2c1=O | 75 | 0.398 | –
CCCn1ccc2cc(OCc3cccnc3)cc(Cl)c2c1=O | 126 | 2.51 | –
CCCn1ccc2cc(-c3ccc(Oc4ccncc4)cc3)cc(Cl)c2c1=O | 90 | 0.158 | –
CCCn1ccc2cc(-c3cncnc3)cc(Cl)c2c1=O | 28 | 3.98 | –
CCCn1ccc2cc(-c3ccc(OCc4ccc(Cl)nc4)cc3)cc(Cl)c2c1=O | 81 | 0.398 | –
CCCn1ccc2cc(-c3ccc(N(C)C)nc3)cc(Cl)c2c1=O | 85 | 5.01 | –
CCCn1ccc2cc(NCc3cccnc3)cc(Cl)c2c1=O | 82 | 3.16 | –
CCCn1ccc2cc(-c3ccc(OC)cc3)cc(Cl)c2c1=O | 136 | 0.316 | –
CCCn1ccc2cc(OCCc3cccnc3)cc(Cl)c2c1=O | 47 | 0.794 | –
CCCn1ccc2cc(-c3ccc(Oc4ccccc4)cc3)cc(Cl)c2c1=O | 88 | 2 | –
CCCn1ccc2cc(-c3ccc(OCc4cccnc4)cc3)cc(Cl)c2c1=O | 64 | 1.26 | –
CCCn1ccc2cc(-c3ccc(Oc4ccccc4)nc3)cc(Cl)c2c1=O | 92 | 0.501 | –
CCCn1ccc2cc(N3CCNCC3)cc(Cl)c2c1=O | 47 | > 10 | –
CCCn1ccc2cc(-c3ccc(OCCc4ccccc4)nc3)cc(Cl)c2c1=O | 103 | 0.631 | –
CCCn1ccc2cc(-c3ccc(OCc4cccnc4)nc3)cc(Cl)c2c1=O | 120 | 0.316 | –

Second part, the compound after the results:

Emax [1] [%] | EC50 [2] [µM] | EC50 [3] [µM] | Structure (SMILES)
73 | 1.26 | – | CCCn1ccc2cc(-c3ccncc3)cc(Cl)c2c1=O
65 | 1.58 | – | CCCn1ccc2cc(-c3cn[nH]c3)cc(Cl)c2c1=O
104 | 5.01 | 2.51 | CCCn1ccc2cc(N3CCOCC3)cc(Cl)c2c1=O
84 | 0.794 | – | CCCn1ccc2cc(-c3ccc(N4CCOCC4)nc3)cc(Cl)c2c1=O
121 | 0.794 | – | CCCn1ccc2cc(-c3ccc(OC)nc3)cc(Cl)c2c1=O
81 | 7.94 | – | CCCn1ccc2cc(-c3cccnc3)ccc2c1=O
– | > 50.1 | – | CCCn1ccc2cc(-c3cccnc3)cc(C#N)c2c1=O
83 | 0.631 | – | CCCn1ccc2cc(-c3cccnc3)cc(Cl)c2c1=O
66 | > 10 | – | CCCn1ccc2cc(N3CCOCC3)ccc2c1=O
106 | 5.01 | – | CCCn1ccc2cc(N3CCC(O)CC3)cc(Cl)c2c1=O
